The source made the active and inactive calls. The calls are words filed in the database; no cut-off is given here.
Key:
Influenza A virus [1] = experiment: Antiviral activity against Influenza A virus (A/Puerto Rico/8/1934(H1N1)) infected in MDCK cells incubated for 48 hrs by MTT assay; format: functional, organism-based
Influenza A virus [2] = experiment: Antiviral activity against Influenza A virus (A/Puerto Rico/8/1934(H1N1)) infected in MDCK cells pre-treated with virus for 30 mins followed by cell infection for 1 hr by MTT assay; format: functional, organism-based
[3] = Cytotoxicity against dog MDCK cells incubated for 48 hrs by MTT assay; format: cell-based, Canis lupus familiaris
MDCK = experiment: Inhibition of V-ATPase in dog MDCK cells assessed as decrease in fluorescence intensity at 5 uM incubated for 20 mins by acridine orange staining-based fluorescence quenching method (reference value: 100%); format: cell-based; settings: Canis lupus familiaris
Influenza A virus [4] = experiment: Antiviral activity against Influenza A virus (A/Puerto Rico/8/34(H1N1)) infected in MDCK cells assessed as reduction in NP expression level at 0.5 to 1 ng/ml pre-treated with virus for 30 mins followed by cell infection for 1 hr and measured after 24 hrs post infection by indirect immunofluorescence assay; format: functional, organism-based; settings: A/Puerto Rico/8/1934(H1N1), dose 0.5-1 ng/ml, time 1470.0 min
Influenza A virus [5] = experiment: Antiviral activity against Influenza A virus (A/Puerto Rico/8/34(H1N1)) infected in MDCK cells assessed as reduction in HA mRNA level at 1 ng/ml pre-treated with virus for 30 mins followed by cell infection for 1 hr and measured after 24 hrs post infection by SYBR green dye-based qRT-PCR analysis; format: functional, organism-based; settings: A/Puerto Rico/8/1934(H1N1), time 1470.0 min
Influenza A virus [6] = experiment: Antiviral activity against Influenza A virus (A/Puerto Rico/8/34(H1N1)) infected in MDCK cells assessed as reduction in M1 mRNA level at 1 ng/ml pre-treated with virus for 30 mins followed by cell infection for 1 hr and measured after 24 hrs post infection by SYBR green dye-based qRT-PCR analysis; format: functional, organism-based; settings: A/Puerto Rico/8/1934(H1N1), time 1470.0 min
SARS-CoV-2 [7] = experiment: Antiviral activity against SARS-CoV-2 nCoV-2019 BetaCoV/Wuhan/WIV04/2019 infected in Vero E6 cells assessed as S gene expression preincubated with virus for 30 mins followed by cell infection for 1 hr and measured at 24 hrs post infection by qRT-PCR method; format: functional, organism-based; settings: Severe acute respiratory syndrome coronavirus 2, nCoV-2019 BetaCoV/Wuhan/WIV04/2019, Vero C1008
SARS-CoV-2 [8] = experiment: (§1) Antiviral activity against SARS-CoV-2 nCoV-2019 BetaCoV/Wuhan/WIV04/2019 infected in Vero E6 cells assessed as S gene expression preincubated with cells for 1 hr followed by viral addition for 1 hr and measured at 24 hrs post infection by qRT-PCR method; format: functional, organism-based; settings: Severe acute respiratory syndrome coronavirus 2, nCoV-2019 BetaCoV/Wuhan/WIV04/2019, Vero C1008
SARS-CoV-2 [9] = experiment: as §1, with “reduction in NP” for “S gene”, “expression at 0.005 to 0.5 ug/ml” for “expression”, “indirect immunofluorescence assay” for “qRT-PCR method”; format: functional, organism-based; settings: Severe acute respiratory syndrome coronavirus 2, dose 0.005-0.5 µg/ml, time 26.0 hrs

Row | Structure (SMILES) | IC50 (Influenza A virus [1]) [nM] | IC50 (Influenza A virus [2]) [nM] | CC50 at 48 h [3] [nM] | Flu intensity (MDCK) [%] | Activity (Influenza A virus [4]) | Activity (Influenza A virus [5]) | Activity (Influenza A virus [6]) | IC50 (SARS-CoV-2 [7]) [nM] | IC50 (SARS-CoV-2 [8]) [nM] | Activity (SARS-CoV-2 [9])
1 | CO/C1=C/C(C)=C/[C@@H](C)[C@H](O)[C@@H](C)C/C(C)=C/C=C/[C@H](OC)[C@@H]([C@@H](C)[C@@H](O)[C@H](C)C(=O)/C=C/C(C)=C/C(C)C)OC1=O | 460 | 2.13 | 3100 | 93.5 |  |  |  |  |  | 
2 | CO/C1=C/C(C)=C/[C@@H](C)[C@H](O)[C@@H](C)C/C(C)=C/C=C/[C@H](OC)[C@@H]([C@@H](C)[C@@H](O)[C@H](C)[C@]2(OC)C[C@H](O)[C@@H](C)[C@H](C(C)C)O2)OC1=O | 170 | 0.11 | 1710 | 88.7 |  |  |  |  |  | 
3 | CO/C1=C/C(C)=C/[C@@H](C)[C@H](O)[C@@H](C)C/C(C)=C/C=C/[C@H](OC)[C@@H]([C@@H](C)[C@@H](O)[C@H](C)[C@]2(OC)C[C@H](OC(=O)/C=C/C(=O)NC3=C(O)CCC3=O)[C@@H](C)[C@H](C(C)C)O2)OC1=O | 50 | 0.1 | 240 | 73.6 | Active | Active | Active | 8.32 | 5.11 | Active
4 | CO/C1=C/C(C)=C/[C@@H](C)[C@H](O)[C@@H](C)C/C(C)=C/C=C/[C@H](OC)[C@@H]([C@@H](C)[C@@H](O)[C@H](C)[C@]2(O)C[C@H](OC(=O)/C=C/C(=O)NC3=C(O)CCC3=O)[C@@H](C)[C@H](C(C)C)O2)OC1=O | 100 | 0.17 | 1310 | 78.4 | Active | Active | Active |  |  | 
5 | CO/C1=C/C(C)=C/[C@@H](C)[C@H](O)[C@@H](C)C/C(C)=C/C=C/[C@H](OC)[C@@H]([C@@H](C)[C@@H](O)[C@H](C)[C@]2(O)C[C@H](OC)[C@@H](C)[C@H](C(C)C)O2)OC1=O | 140 | 0.65 | 190 |  |  |  |  |  |  | 
6 | CO/C1=C/C(C)=C/[C@@H](C)[C@H](O)[C@@H](C)C/C(C)=C/C=C/[C@H](OC)[C@@H]([C@@H](C)[C@@H](O)[C@H](C)C(=O)/C=C/[C@H](C)[C@H](O)C(C)C)OC1=O | 30 | 0.1 | 910 | 82.7 |  |  |  |  |  | 
7 | CCOC(=O)c1c(CSc2ccccc2)n(C)c2cc(Br)c(O)c(CN(C)C)c12 [UMIFENOVIR] | 460 | 400 | 46400 |  |  |  |  |  |  | 
8 | CO/C1=C/C(C)=C/[C@@H](C)[C@H](O)[C@@H](C)C/C(C)=C/C=C/[C@H](OC)[C@@H]([C@@H](C)[C@@H](O)[C@H](C)[C@]2(OC)C[C@H](OC)[C@@H](C)[C@H](C(C)C)O2)OC1=O | 260 | 0.18 | 1290 |  |  |  |  |  |  | 
9 | CO/C1=C\C(C)=C\[C@@H](C)[C@@H](O)[C@@H](C)C/C(C)=C/C=C/[C@H](OC)[C@@H]([C@@H](C)[C@@H](O)[C@H](C)[C@@]2(O)C[C@@H](O)[C@H](C)[C@@H](C(C)C)O2)OC1=O [BAFILOMYCIN A1] | 580 | 0.06 | 1410 | 85.3 |  |  |  |  |  | 

Reference: ChEMBL document CHEMBL4813961, “Antiviral Bafilomycins from a Feces-Inhabiting Streptomyces sp” (J Nat Prod, 2021)
